Assay results: article PMC5998989 (Pain Medicine: The Official Journal of the American Academy …, 2017)
Where “and” joins values, the source holds several entries; their conditions need not be identical. Identical values can stand only once. One block for each molecule: values may come before it.

Tests used:
healthy female subjects [1] = assay: Laser evoked potentials; format: in vivo, human; details: for Dose at which the maximum postdose response was attained: LEP N2-P2 PtP, once daily multiple dosing; for Time to maximum response (percentage change in LEP N2-P2 PtP amplitudes): after dosing
healthy female subjects [2] = assay: VAS pain; format: in vivo, human; details: all subjects
[3] = Plasma pharmacokinetics after multiple ascending once daily doses; format: in vivo, human
healthy female subjects [4] = assay: Safety and tolerability; format: in vivo, human
rats = details: ref unpublished data; cited from earlier work
patients with PNP = details: cited from earlier work
[5] = test system: cannabinoid receptors / TRPV1 receptors; details: cited from earlier work

SMILES: O=C(Nc1ccccc1)C1CCN(C(=O)Oc2cccnc2)CC1 [ASP8477]
Mean Difference (95% CI) vs placebo, LEP N2-P2 PtP amplitude, secondary analysis (healthy female subjects [1]; 100 mg day 21 vs placebo day 21, all subjects, session as a random effect): −1.58 (−3.30 to 0.15) µV | Mean Difference (95% CI) vs placebo, LEP N2-P2 PtP amplitude, primary analysis (healthy female subjects [1]; 100 mg day 21 vs placebo day 21, all subjects, session as replications): −1.58 (−3.30 to 0.14) µV | LS mean PtP (SE), LEP N2-P2 PtP amplitude, secondary analysis (healthy female subjects [1]; 100 mg, day 21, all subjects, linear mixed regression model with session as a random effect): 29.66 (2.80) µV | LS mean PtP (SE), LEP N2-P2 PtP amplitude, primary analysis (healthy female subjects [1]; 100 mg, day 21, all subjects, linear mixed regression model with session as replications): 28.31 (2.75) µV | Dose at which the maximum postdose response was attained (healthy female subjects [1]): 20 mg | Time to maximum response (percentage change in LEP N2-P2 PtP amplitudes) (healthy female subjects [1]): approximately one to four | Day 14 predose response for LEP N2-P2 PtP amplitudes, % of the maximum response (healthy female subjects [1]; all subjects): 4% and 8% | Day 21 predose response for LEP N2-P2 PtP amplitudes, % of the maximum response (healthy female subjects [1]; all subjects): 19% | LEP N2-P2 PtP cumulative magnitude of response (AUC) (healthy female subjects [1]; all subjects): approximately 200 | LEP N2-P2 PtP amplitudes, overall mean (healthy female subjects [1]; all subjects, across all doses): 28.51 µV | Mean difference vs placebo in LEP N2-P2 PtP amplitudes (healthy female subjects [1]; all subjects, across all doses): –1.41 µV | Day 21 predose effect for LEP N2-P2 PtP amplitudes, % of the maximum achievable effect (healthy female subjects [1]; capsaicin-positive subgroup): 40% | LEP N2-P2 PtP cumulative magnitude of response (AUC) (healthy female subjects [1]; capsaicin-positive subgroup, day 7): approximately 400 | LEP N2-P2 PtP cumulative magnitude of response (AUC) (healthy female subjects [1]; capsaicin-positive subgroup, day 14): ~420 | LEP N2-P2 PtP cumulative magnitude of response (AUC) (healthy female subjects [1]; capsaicin-positive subgroup, day 21): ~470 | Day 14 predose response for VAS pain scores, % of the maximum response (healthy female subjects [2]): 23% | Day 21 predose response for VAS pain scores, % of the maximum response (healthy female subjects [2]): 4% | Mean difference vs placebo in VAS pain score (healthy female subjects [2]; all doses): –2.55% | Mean VAS pain score (healthy female subjects [2]; all three doses (overall)): 42.23% | Dose proportionality of PK parameters ([3]; between 20 mg and 100 mg, multiple ascending doses): more than dose-proportional | Absorption following oral dosing ([3]; oral dosing): rapidly absorbed | Median tmax (range) ([3]; oral dosing, all doses): 2.1 to 4.1 h | Tolerability (healthy female subjects [4]; ascending doses of 20 mg, 60 mg, and 100 mg once daily): well tolerated | Subjects reporting a treatment-emergent adverse event (TEAE) (healthy female subjects [4]; during treatment, all doses): 83% | TEAE disorientation, subjects (healthy female subjects [4]; during treatment, all doses): 8% | TEAE disturbance in attention and illusion, subjects (healthy female subjects [4]; during treatment, all doses): 13% | TEAE dry mouth, subjects (healthy female subjects [4]; during treatment, all doses): 21% | TEAE fatigue, subjects (healthy female subjects [4]; during treatment, all doses): 29% | TEAE headache, subjects (healthy female subjects [4]; during treatment, all doses): 29% | TEAE memory impairment, subjects (healthy female subjects [4]; during treatment, all doses): 13% | TEAE vertigo, subjects (healthy female subjects [4]; during treatment, all doses): 29% | Effects in nonclinical toxicity studies (rats): effects observed on male fertility | Difference between ASP8477 and placebo (patients with PNP; double-blind randomized withdrawal period): no difference | Patients reporting a reduction of ≥30% in their pain (patients with PNP; single-blind period, 30 mg BID): ~60%

SMILES: CCCCC/C=C\C/C=C\C/C=C\C/C=C\CCCC(=O)NCCO [AEA, N-arachidonoyl-ethanolamine]
Potency toward cannabinoid receptors relative to that toward TRPV1 receptors [5]: about 10 times

PK parameters of 60 mg compared with 30 mg ([3]; once daily for seven days): approximately doubled
SMILES: CNCC[C@H](Oc1cccc2ccccc12)c1cccs1 [duloxetine, reference compound]
Dose at which the maximum postdose response was attained (healthy female subjects [1]): 30 mg | Time to maximum response (percentage change in LEP N2-P2 PtP amplitudes) (healthy female subjects [1]): approximately one to four | Day 14 predose response for LEP N2-P2 PtP amplitudes, % of the maximum response (healthy female subjects [1]; all subjects): 26% | Day 21 predose response for LEP N2-P2 PtP amplitudes, % of the maximum response (healthy female subjects [1]; all subjects): 44% | LEP N2-P2 PtP amplitudes, overall mean (healthy female subjects [1]; all subjects, across all doses): 24.71 µV | Mean difference duloxetine vs ASP8477 in LEP N2-P2 PtP amplitudes (healthy female subjects [1]; all subjects, across all doses): –3.80 µV | Mean difference vs placebo in LEP N2-P2 PtP amplitudes (healthy female subjects [1]; all subjects, across all doses): –5.21 µV | Day 14 predose effect for LEP N2-P2 PtP amplitudes, % of the maximum achievable effect (healthy female subjects [1]; capsaicin-positive subgroup): 40% | Day 21 predose effect for LEP N2-P2 PtP amplitudes, % of the maximum achievable effect (healthy female subjects [1]; capsaicin-positive subgroup): around 40% | Time to maximum effect (healthy female subjects [1]; postdose): five | Day 14 predose response for VAS pain scores, % of the maximum response (healthy female subjects [2]): 17% | Day 21 predose response for VAS pain scores, % of the maximum response (healthy female subjects [2]): 10% | TEAE fatigue, subjects (healthy female subjects [4]; during treatment, all doses): 29% | TEAE nausea, subjects (healthy female subjects [4]; during treatment, all doses): 29%
